Key:
Type in all cases: cell-based, human
[1] = tested on: MU89 MART::EGFP cell line; experiment: Melan-A/MART-1 promoter-driven EGFP reporter, kinetics by flow cytometry; settings: MU89 MART::EGFP (FIG. 11)
Method: FIG. 11 is a set of four graphs showing the kinetics of Melan-A/MART-1 increase. […] The same number of cells per well were plated in each well of a 24 well plate and drug was added on day zero. Each day cells were collected and assayed for that time point. Control untreated cells are shown for comparison. The data are from one representative experiment.
A kinetic analysis was performed to determine the effect of Hsp90 inhibition on Melan-A/MART-1 promoter activity over time. […] Reporter activity increases steadily for the first 72 hours of Hsp90 inhibition, and then plateaus. The need for continued presence of Hsp90 inhibitors in order for them to be effective (i.e. whether the drug can be removed after short exposure, or whether it must it be continually present) was assessed. […] To achieve full signal enhancement, it is desirable to retain the drug for at least 48 hours, after which the effect remains constant or slightly decreases.
The generation and application of EGFP reporter cells has been previously described. Briefly, a 1200 base pair human genomic DNA segment encompassing the Melan-A/MART-1 promoter was used to generate a construct driving expression of the EGFP reporter gene. Stable transfectants with this construct were generated in the low-antigen cell line A375 and the high-antigen line MM96L+ and MU89. The EGFP expression response patterns of these cells to IFN-beta and MAP kinase inhibitors recapitulates the antigen up-regulation of endogenous Melan-A/MART-1 induced by these agents.
Intracellular staining and flow cytometric analyses of cytoplasmic Melan-A/MART-1, and gp100 expression were performed as described previously. Cells were fixed with 1% formaldehyde, permeabilized with 0.1% saponin, stained with monoclonal antibodies to melanocyte antigens. Antibodies were obtained with specificity for: Melan-A/MART-1 from Vector Labs (Burlingame, Calif.); gp100/HMB45 from DakoCytomation (Carpinteria, Calif.) and then visualized with goat anti-mouse FITC-conjugated secondary antibody from Invitrogen (Frederick, Md.). The level of EGFP was determined by flow cytometry of unfixed cells washed and resuspended in 1×PBS. Surface staining of MHC Class I was carried out using the antibody W6/32 on cells harvested with Cell Stripper from MediaTech Inc. (Manassas, Va.) and carried out on ice.

[2] = tested on: Melan-A/MART-1 promoter EGFP reporter cell line; experiment: Melan-A/MART-1 promoter-driven EGFP reporter cell line, secondary screen of hits (FIG. 6); settings: over a dose range (FIG. 6)
Source text: FIG. 6 is a series of graphs showing EGFP detection of in cells treated with the indicated hits showing ability to upregulate a cell line containing a Melan-A/MART-1 promoter-driven EGFP reporter. Note that the x-axes (drug concentrations) and y-axes (EGFP fluorescent measurement) cover different ranges to best indicate the activities of individual compounds. Data from a single determination, representative of at least three confirmatory experiments, is shown.
The EGFP reporter driven by the Melan-A/MART-1 promoter represents one such orthogonal assay because it evaluates directly the effect of the compounds on Melan-A/MART-1 promoter activity independent of Melan-A/MART-1 protein expression. Compounds passing the other secondary screens, but failing this one, may affect antigen presentation by other mechanisms such as increasing the efficiency of antigen processing, enhancing MHC Class I levels, or by stabilizing the antigen/MHC complex.
As for the primary screen, 17-AAG and aphidicolin, had the largest impact on EGFP stimulation, inducing 3-fold and 5-fold increases respectively. […]
(§1) Cells were fixed with 1% formaldehyde, permeabilized with 0.1% saponin, stained with monoclonal antibodies to melanocyte antigens. […] The level of EGFP was determined by flow cytometry of unfixed cells that were washed and resuspended in 1×PBS.

melanomas and gliomas = experiment: Intracellular staining for Melan-A/MART-1 and gp100, melanomas and gliomas exposed to hits (Table 10); settings: in most cell lines; three days (Table 10)
Method: FIG. 7 is a series of graphs showing intracellular staining and flow histograms used to generate data for Table 10. All cells were stained with an antibody to gp100. Thin line represents untreated cells, bold line represents cells treated for three days with 17-AAG (1 μg/ml). Numbers represent geometric mean of flow histograms.
A further orthogonal secondary screen is the measurement of Melan-A/MART-1 and gp100 in additional melanoma cell lines and gliomas in response to the primary hit candidates. […] If the compounds of interest increase antigen levels in multiple melanoma cell lines and two gliomas, the effects of the compounds are clearly not limited to a single melanoma cell type.
As for the primary screen, 17-AAG and aphidicolin, had the largest impact on EGFP stimulation, inducing 3-fold and 5-fold increases respectively. Four additional compounds: damnacanthal, flunarizine, OBAA, and dantrolene stimulated EGFP more than 2-fold. We then tested the ability of the hit compounds to induce antigen increases in a more diverse set of tumors including melanomas and gliomas. […]
as §1

MU89 melanoma cells = experiment: Tumor cell/T cell co-culture IL-2 ELISA (Melan-A/MART-1 specific TCR Jurkat line J-TCR-M1 as responder); settings: for Fold increase (IL-2 relative to untreated controls), hits from pilot screen: about 10 μM, 72 hours treatment, then 24 hours co-culture
Source text: The assay relies on the use of an antigen-specific responder T cell line. […] The chosen TCR reacts specifically to a Melan-A/MART-1 decapeptide (26[…]35) presented by HLA-A2, with appropriate triggering of T cell activation. We then used a lentiviral vector system for transduction of this specific TCR into the J.RT3-T3.5 T cell line, a Jurkat cell derivative which fails to express endogenous surface TCR through a mutation in its beta chain.
We evaluated several candidate melanoma cell lines for the ability to stimulate the J-TCR-M1 cell line. Levels of Melan-A/MART-1 (determined by intracellular staining and flow cytometry) and corresponding levels of induced IL-2 (determined by coculture with J-TCR-M1 and IL-2 ELISA) were tested for different melanoma cell lines.
The 480 compounds were tested in six parallel 96 well plates. The first two columns (16 wells) of each plate were used for standards (8 wells), untreated controls (4 wells), and positive controls (4 wells). The other ten columns (80 wells) were used for testing compounds in separate wells. A100 μl aliquot containing 5×10^4 MU89 cells was added to wells that contained 0.1 μl of each test drug diluted in 50 μl of RPMI media. The plates were incubated with drug for 72 hours at 37° C. in a humidified incubator with 5% CO2. After 72 hours, each well received 2.5×10^4J-TCR-M1 cells in 50 μl medium, and then incubated a further 24 hours. At the conclusion of the 24 hour co-culture period, each plate was centrifuged to pellet the cells and 100 μl supernatant fluid was collected from each well and plated in a parallel 96 well flat bottom well for IL-2 ELISA assay.
Melanoma cells were treated with hits from the primary screen for three days prior to counting and plating for the coculture assay (cells were washed and resuspended in fresh medium that no longer contained the treatment agents during the co-culture). A100 μl volume of 5×10^5 cells/ml tumor cells were mixed with 50 μl of […] T cells in a 96-well V-bottom plate and incubated overnight (16-24 hours). Plates were centrifuged to pellet the cells and 100 μl of supernatant fluid was removed from each well for cytokine assay. To assess antigen-specific T cell responses, a final concentration of 3.33 μg/ml Melan-A/MART-1 peptide (26[…]35 (A27L from wild type)) was added to the co-culture.
(§2) The protocol for evaluation of the cytokine IL-2 was performed using a the BD OptEAI kit, human IL-2 ELISA set from BD Biosciences (San Diego, Calif.) following the manufacturer's recommendations. The absorbance 450 nm was read in a BioRad 3550 plate reader. A standard curve using known concentrations of IL-2 (from 500 to 8 pg/ml) was included in each ELISA plate. IL-2 levels for experimental samples (pg/ml) were calculated from the standard curve.
100 μl of 5×10^5 tumor cells/ml were mixed with 50 μl of T cells (at 5×10^5 cells/ml) in a 96-well V-bottom plate and incubated overnight (16-24 hours). Plates were centrifuged to pellet the cells and 120 μl of supernatant fluid was removed from each well for cytokine assay. To assess antigen-specific T cell responses, 3.33 μg/ml Melan-A/MART-1 peptide was added to the co-culture.
The protocols for evaluation of either IL-2 or IFN-gamma were similar, following the manufacturer's recommendations. A standard curve using known concentrations of each cytokine was included in each ELISA experiment. ELISA plates were coated with capture antibody and then washed with 1×PBS 0.5% Tween-20. Wells were blocked with 1×PBS 1% FBS for 1 hour and rewashed.

J-TCR-M1 T cells = experiment: Secondary screen for nonspecific T cell activation (T cells alone, IL-2); settings: 2.5×10^4 T cells alone, no tumor; PMA 2 μg/ml
Method: FIG. 4 is a graph showing IL-2 expression from the secondary screen for nonspecific T cell activation. Bars indicate the incubation of 2.5×10^4 T cells alone with the indicated compounds. The concentration of compounds used in this assay are; 17-AAG 10 μg/ml, OBAA 25 μg/ml, aphidicolin 4 μg/ml, flunarizine 8 μg/ml, dantrolene 2 μg/ml, glyburide 4 μg/ml, and PMA 2 μg/ml.
Secondary screens were carried out on the 8 primary hits, to further test performance robustness, specificity, and certain functional properties. Initially, for any previously-described compound, extensive literature searches must be performed to look for all relevant known bioactivities, especially towards melanocytic cells or T cells. […] Testing for non-specific T cell stimulation will identify false positives, and compounds failing this test will not be further evaluated in any other secondary screens. […]
as §2, with “A standard curve using known concentrations of IL-2 (from 500 to 8 pg/ml) was included in each ELISA plate.” left out

Structure (SMILES)	Time at which the fluorescent reporter signal is significantly enhanced (as early as) [1] [days]	EGFP stimulation (Melan-A/MART-1 promoter reporter) [2] [fold]	Protein increase (Melan-A/MART-1, gp100 intracellular staining) (melanomas and gliomas)	Outcome in the primary co-culture IL-2 screen (hit or not) (MU89 melanoma cells; ICCB Known Bioactives Library, 10 μM)	Fold increase (IL-2 relative to untreated controls), hits from pilot screen (MU89 melanoma cells) [fold]	IL-2 stimulation in repeat of the tumor T cell co-culture IL-2 ELISA (MU89 melanoma cells; hits re-tested over a wider dose range (FIG. 5))	IL-2 expression of T cells incubated alone with compound (nonspecific T cell activation) (J-TCR-M1 T cells)
C=CCNC1=C2C[C@@H](C)C[C@H](OC)[C@H](O)[C@@H](C)/C=C(\C)[C@H](OC(N)=O)[C@@H](OC)/C=C\C=C(/C)C(=O)NC(=CC1=O)C2=O [17-AAG, 17-allylaminogeldanamycin]	2	3	inducing high levels of protein increases at low concentrations	identified as a hit	7.7	about 7 fold	–
CCCCCCCCCCCCCC(=O)O[C@@H]1[C@@H](C)[C@@]2(O)[C@@H](C=C(CO)C[C@]3(O)C(=O)C(C)=C[C@@H]23)[C@@H]2C(C)(C)[C@]12OC(C)=O [PMA, phorbol-12-myristate-13 acetate]	–	–	–	–	1.9	–	caused T cells stimulation in the absence of tumor
